The record followed here is ChEMBL document CHEMBL5360670, “Novel Dihydroorotate Dehydrogenase Inhibitors for Treating Acute Myelogenous Leukemia” (ACS Med Chem Lett, 2023).

One may read the IC50 as the midpoint of a concentration-inhibition curve.

Dihydroorotate dehydrogenase (quinone), mitochondrial, sequence (Q02127 whole entry): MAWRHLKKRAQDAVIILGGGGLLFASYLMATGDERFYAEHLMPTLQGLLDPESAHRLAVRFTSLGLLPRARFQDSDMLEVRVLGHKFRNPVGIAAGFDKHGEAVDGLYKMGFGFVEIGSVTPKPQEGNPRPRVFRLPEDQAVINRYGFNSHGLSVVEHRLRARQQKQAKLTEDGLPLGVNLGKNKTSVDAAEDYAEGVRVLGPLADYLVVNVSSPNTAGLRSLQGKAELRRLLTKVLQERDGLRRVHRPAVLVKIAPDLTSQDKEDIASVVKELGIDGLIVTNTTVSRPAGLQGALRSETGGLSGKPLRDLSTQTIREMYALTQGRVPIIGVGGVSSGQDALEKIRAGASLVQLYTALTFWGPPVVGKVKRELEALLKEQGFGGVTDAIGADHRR

The first experiment addresses Dihydroorotate dehydrogenase (quinone), mitochondrial (Homo sapiens, UniProt Q02127). Nature of the experiment: Inhibition of human DHODH using dihydroorotate and CoQ6 as substrate by DCIP dye based spectrophotometry analysis.
Conditions: not given
For `[2H]C([2H])([2H])n1cc(-c2cc3c(C(C)C)cn(-c4ccccc4C)c(=O)c3cc2F)nc1C(C)(C)O`, the half-inhibitory concentration (IC50) came to 0.54 nM.

The test system of another experiment is MOLM-13. Kind of experiment: Cytotoxicity against human MOLM-13 cells assessed as reduction in cell viability incubated for 72 hrs by Celltiter-glo luminescent assay. In kind it is functional, cell-based. The settings on record: MOLM-13, 72 h. (Cellular ATP, detected with luciferase, serves as a proxy for viable cell number.)
In the case of `Cc1ccccc1-n1cc(C(C)C)c2cc(-c3ccc(C)c(N)n3)c(F)cc2c1=O`, the half-inhibitory concentration (IC50) was determined as 0.02 nM. For `Cc1ccccc1-n1nc(C(C)C)c2cc(-c3cn(C)c(C(C)(C)O)n3)c(F)cc2c1=O`, the IC50 came out at 0.09 nM. As to `Cc1ccccc1-n1cc(C(C)C)c2cc(-c3cn(C)c(C(C)(C)O)n3)c(F)cc2c1=O`, the IC50 came out at 0.08 nM.

Regarding `Cc1ccccc1-n1cc(C(C)C)c2cc(-c3cn(C)c([C@@H](C)O)n3)c(F)cc2c1=O`, the IC50 is 0.1 nM. The same measure, in the same setting: under `[2H]C([2H])([2H])n1cc(-c2cc3c(C(C)C)cn(-c4ccccc4C)c(=O)c3cc2F)nc1C(C)(C)O` stands 0.04 nM; under `Cc1ccccc1-n1cc(C(C)C)c2cc(-c3nc(C(C)(C)O)n(C)n3)c(F)cc2c1=O`, 0.08 nM.
